Source: PubChem BioAssay (NCI)
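Protocol summary: plate cells (96-well), add compound at 5 concentrations, incubate 48 h, interpolate endpoints linearly. TGI is the concentration that stops growth completely.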

How the values were obtained:
Assay in all cases: NCI tumour cell line growth inhibition, 48 h
[1] = tested on: 786-0 renal
[2] = tested on: A498 renal
[3] = tested on: A549 NSCLC
[4] = tested on: ACHN renal
[5] = tested on: CAKI-1 renal
[6] = tested on: CCRF-CEM leukemia
[7] = tested on: COLO 205 colon
[8] = tested on: DLD-1 colon
[9] = tested on: DMS 114 small cell lung
[10] = tested on: DMS 273 small cell lung
[11] = tested on: HCC-2998 colon
[12] = tested on: HCT-116 colon
[13] = tested on: HCT-15 colon
[14] = tested on: HL-60(TB) leukemia
[15] = tested on: HOP-18 NSCLC
[16] = tested on: HOP-62 NSCLC
[17] = tested on: HOP-92 NSCLC
[18] = tested on: HT29 colon
[19] = tested on: IGROV1 ovarian
[20] = tested on: K-562 leukemia
[21] = tested on: KM12 colon
[22] = tested on: KM20L2 colon
[23] = tested on: LOX IMVI melanoma
[24] = tested on: LXFL 529 NSCLC
[25] = tested on: M14 melanoma
[26] = tested on: M19-MEL melanoma
[27] = tested on: MALME-3M melanoma
[28] = tested on: MOLT-4 leukemia
[29] = tested on: NCI-H226 lung
[30] = tested on: NCI-H23 lung
[31] = tested on: NCI-H460 lung
[32] = tested on: NCI-H522 lung
[33] = tested on: OVCAR-3 ovarian
[34] = tested on: OVCAR-4 ovarian
[35] = tested on: OVCAR-5 ovarian
[36] = tested on: OVCAR-8 ovarian
[37] = tested on: RPMI-8226 leukemia
[38] = tested on: RXF 393 renal
[39] = tested on: RXF-631 renal
[40] = tested on: SF-268 CNS
[41] = tested on: SF-295 CNS
[42] = tested on: SF-539 CNS
[43] = tested on: SK-MEL-28 melanoma
[44] = tested on: SK-MEL-5 melanoma
[45] = tested on: SK-OV-3 ovarian
[46] = tested on: SN12C renal
[47] = tested on: SNB-19 CNS
[48] = tested on: SNB-75 CNS
[49] = tested on: SNB-78 CNS
[50] = tested on: SR leukemia
[51] = tested on: SW-620 colon
[52] = tested on: TK-10 renal
[53] = tested on: U251 CNS
[54] = tested on: UACC-257 melanoma
[55] = tested on: UACC-62 melanoma
[56] = tested on: UO-31 renal
[57] = tested on: XF 498 CNS

CCCCCCC[C@@H](O)CC(=O)NC(CC(C)C)C(=O)NC(CCC(=O)O)C(=O)NC1C(=O)NC(C(C)C)C(=O)NC(CC(C)C)C(=O)NC(CO)C(=O)NC(CC(C)C)C(=O)NC(CO)C(=O)NC(C(C)CC)C(=O)OC1C (some centres not stated)
TGI [1]: 27.9 µM | TGI [2]: 31.6 µM | TGI [3]: 36.1 µM | TGI [4]: 25.7 µM | TGI [5]: 37.6 µM | TGI [6]: 25.8 µM | TGI [7]: 2930 nM | TGI [8]: 3.04 µM | TGI [9]: 33.1 µM | TGI [10]: 28.1 µM | TGI [11]: 28.6 µM | TGI [12]: 25.7 µM | TGI [13]: 4.42 µM | TGI [14]: 37.2 µM | TGI [15]: 24.9 µM | TGI [16]: 24.4 µM | TGI [17]: 18.7 µM | TGI [18]: 31 µM | TGI [19]: 31.6 µM | TGI [20]: 30.9 µM | TGI [21]: 26.6 µM | TGI [22]: 30.5 µM | TGI [23]: 31.2 µM | TGI [24]: 25.8 µM | TGI [25]: 20.9 µM | TGI [26]: 22.6 µM | TGI [27]: 17.6 µM | TGI [28]: 39.9 µM | TGI [29]: 34.2 µM | TGI [30]: 29.9 µM | TGI [31]: 11.3 µM | TGI [32]: 26.6 µM | TGI [33]: 31.1 µM | TGI [34]: 34.4 µM | TGI [35]: 31.8 µM | TGI [36]: 29.8 µM | TGI [37]: 33.5 µM | TGI [38]: 26 µM | TGI [39]: 28.8 µM | TGI [40]: 30.5 µM | TGI [41]: 22.2 µM | TGI [42]: 4.77 µM | TGI [43]: 30.6 µM | TGI [44]: 29.9 µM | TGI [45]: 34.4 µM | TGI [46]: 29.5 µM | TGI [47]: 16.6 µM | TGI [48]: 18 µM | TGI [49]: 34.3 µM | TGI [50]: 35.3 µM | TGI [51]: 28.8 µM | TGI [52]: 28.9 µM | TGI [53]: 20.9 µM | TGI [54]: 29 µM | TGI [55]: 29.1 µM | TGI [56]: 33.6 µM | TGI [57]: 15.2 µM
